Test results published in the NIST ThermoML archive (doi:10.1016/j.jct.2013.05.047).
± gives the expanded uncertainty stated by the source.

Key:
[1] = for vapor or sublimation pressure: Closed cell (Static) method; for Normal melting temperature: DTA
[2] = Molar enthalpy of transition or fusion; conditions: Crystal; DSC

Oc1ccc(F)cc1 [4-fluorophenol]
vapor or sublimation pressure [kPa], [1]
Conditions	Crystal	Liquid
265.62 K	0.00084 ± 0.0001	–
267.58 K	0.00108 ± 0.0001	–
269.54 K	0.00137 ± 0.00011	–
271.5 K	0.00174 ± 0.00012	–
273.49 K	0.00222 ± 0.00013	–
275.43 K	0.00279 ± 0.00015	–
277.43 K	0.00353 ± 0.00017	–
279.39 K	0.00443 ± 0.0002	–
281.38 K	0.00555 ± 0.00024	–
283.36 K	0.00696 ± 0.00029	–
285.33 K	0.00863 ± 0.00035	–
287.34 K	0.01071 ± 0.00043	–
289.29 K	0.01329 ± 0.00052	–
291.3 K	0.01648 ± 0.00057	–
291.39 K	–	0.02895 ± 0.00076
293.29 K	0.02028 ± 0.00063	–
293.35 K	–	0.03339 ± 0.00083
295.26 K	0.02476 ± 0.00069	–
295.34 K	–	0.0394 ± 0.00092
297.24 K	0.03044 ± 0.00078	–
297.32 K	–	0.04637 ± 0.001
299.25 K	0.03741 ± 0.00089	0.05448 ± 0.0011
301.19 K	0.04503 ± 0.001	–
301.24 K	–	0.06387 ± 0.0013
303.21 K	0.05518 ± 0.0012	–
303.22 K	–	0.07471 ± 0.0015
305.19 K	0.06658 ± 0.0013	–
305.24 K	–	0.08751 ± 0.0017
307.18 K	0.08105 ± 0.0016	–
307.21 K	–	0.1019 ± 0.0019
309.16 K	0.09599 ± 0.0018	–
309.2 K	–	0.1187 ± 0.0022
311.12 K	0.1152 ± 0.0021	–
311.17 K	–	0.1369 ± 0.0022
313.11 K	0.1383 ± 0.0022	–
313.15 K	–	0.1588 ± 0.0024
315.06 K	–	0.1811 ± 0.0026
315.1 K	0.1647 ± 0.0025	–
317.01 K	–	0.2084 ± 0.0029
317.07 K	0.197 ± 0.0028	–
319.02 K	–	0.2365 ± 0.0032
321.01 K	–	0.2738 ± 0.0036
323.1 K	–	0.3152 ± 0.004
325.09 K	–	0.3611 ± 0.0045
327.06 K	–	0.4129 ± 0.0051
329.05 K	–	0.4644 ± 0.0056
331.02 K	–	0.5332 ± 0.0064
333.01 K	–	0.5995 ± 0.0071
335 K	–	0.6828 ± 0.008
336.96 K	–	0.7646 ± 0.0088
338.93 K	–	0.8651 ± 0.0099
340.78 K	–	0.9558 ± 0.011
342.84 K	–	1.084 ± 0.012

Conditions	Normal melting temperature [°C]
[1], Crystal	47.2 ± 0.4

Conditions	Molar enthalpy of transition or fusion [kcal/mol]
[2]	3.47 ± 0.0956

Oc1ccc(I)cc1 [4-iodophenol]
vapor or sublimation pressure [kPa], [1]
Conditions	Crystal	Liquid
307.15 K	0.00064 ± 0.00011	–
309.13 K	0.00079 ± 0.00011	–
311.09 K	0.00098 ± 0.00011	–
313.1 K	0.00123 ± 0.00012	–
315.1 K	0.00152 ± 0.00012	–
317.05 K	0.00189 ± 0.00013	–
319.1 K	0.00236 ± 0.00014	–
321.01 K	0.00288 ± 0.00016	–
323.01 K	0.00353 ± 0.00018	–
325.06 K	0.00436 ± 0.0002	–
326.95 K	0.00527 ± 0.00024	–
329.02 K	0.00647 ± 0.00028	–
330.91 K	0.00781 ± 0.00033	–
332.98 K	0.00956 ± 0.00039	–
334.88 K	0.01147 ± 0.00046	–
336.93 K	–	0.02432 ± 0.00069
336.95 K	0.01399 ± 0.00053	–
338.83 K	0.01662 ± 0.00057	–
338.84 K	–	0.02795 ± 0.00074
340.71 K	–	0.03222 ± 0.00081
340.9 K	0.02012 ± 0.00063	–
342.72 K	–	0.03713 ± 0.00089
342.79 K	0.02397 ± 0.00068	–
344.73 K	–	0.04253 ± 0.00097
344.86 K	0.02883 ± 0.00076	–
346.71 K	0.03411 ± 0.00084	–
346.73 K	–	0.04894 ± 0.0011
348.71 K	–	0.05593 ± 0.0012
348.82 K	0.04092 ± 0.00095	–
350.67 K	0.0482 ± 0.0011	–
350.69 K	–	0.06373 ± 0.0013
352.67 K	–	0.07262 ± 0.0014
352.76 K	0.05731 ± 0.0012	–
354.59 K	0.06713 ± 0.0014	–
354.62 K	–	0.08281 ± 0.0016
356.58 K	–	0.09387 ± 0.0018
356.72 K	0.07984 ± 0.0015	–
358.58 K	0.09351 ± 0.0018	0.1065 ± 0.002
360.56 K	–	0.1204 ± 0.0022
360.65 K	0.1108 ± 0.0021	–
362.52 K	–	0.1359 ± 0.0022
364.52 K	–	0.1533 ± 0.0024
366.46 K	–	0.1729 ± 0.0026
368.57 K	–	0.1961 ± 0.0028
370.44 K	–	0.2178 ± 0.003
372.51 K	–	0.2463 ± 0.0033
374.38 K	–	0.2725 ± 0.0036
376.46 K	–	0.3075 ± 0.004
378.32 K	–	0.3409 ± 0.0043
380.41 K	–	0.382 ± 0.0047

Conditions	Normal melting temperature [°C]
[1], Crystal	92.7 ± 0.4

Conditions	Molar enthalpy of transition or fusion [kcal/mol]
[2]	4.97 ± 0.12
